# Measured values: paper PMC4528135, “Kinetic Investigations of the Role of Factor Inhibiting Hypoxia-inducible Factor (FIH) as an Oxygen Sensor” (The Journal of Biological Chemistry, 2015)
# Tests used:
# Type in all cases: biochemical
# PHD2 [1] = biological target: T1, PHD2 (Homo sapiens, UniProt Q9GZT9); test: Stopped-flow UV-visible spectroscopy, PHD2·Fe(II)·2OG·substrate + O2; conditions: anaerobic 0.8 mM PHD2, 1 mM peptide, 5 mM 2OG, 50 mM HEPES pH 7.5, mixed 1:1 with O2-saturated buffer at 5 °C, double exponential fit
# T1 construct: The catalytic domain of PHD2 (residues 181–426) was purified as described; made in house
# Experimental: Stopped-flow UV-visible spectroscopy experiments were performed as described previously ([32], [42]). […] The reaction was observed over 1000 s using a photodiode array detector, and kinetic traces were analyzed using Origin version 8.51 software. Data were fitted with a double exponential function (y = A1 × exp(−kriset) + A2 × exp(−kfallt) + y0). The A1, A2, and y0 parameters were restricted with upper limits to match the observed amplitude/offset changes.
# Previously reported pre-steady-state kinetic studies on PHD2 focused on its reaction with CODD HIF-1α 19-mer peptide ([38], [42]); there is no reported information on the rates of PHD2 reaction with O2 in the presence of NODD HIF-1α or HIF-2α substrates. To ascertain whether a slow reaction with O2 under pre-steady-state conditions is common to PHD2-catalyzed hydroxylation of both CODD and NODD, we investigated the reaction of PHD2 with NODD substrates in comparison with CODD for both HIF-1α and HIF-2α. Pre-steady-state reactions of PHD2 were initiated by rapid mixing of anaerobic PHD2·Fe(II)·2OG·HIF-α complexes with O2-saturated buffer at 5 °C. Reactions were initially observed using a photodiode array detector, and difference spectra (in comparison with the reaction with O2-free buffer) were subsequently analyzed.
# FIGURE 5. Pre-steady-state kinetics of PHD2-catalyzed HIF-1/2α hydroxylation. […] B, stopped-flow kinetic traces at 520 nm showing absorbance changes in control experiments: Fe(II) only, mix of Fe(II) and 2OG, reaction of PHD2·Fe(II)·2OG complex with O2 in the absence of CODD; reaction of PHD2·Fe(II)·N-oxalylglycine (NOG)·CODD complex with O2. N-Oxalylglycine is an inhibitor of 2OG oxygenases. […] The kinetic traces represent the average of triplicate assays. E, HIF-1/2α peptide hydroxylation, as determined by MALDI-TOF-MS. Reactions were quenched with 1% CF3CO2H at defined time points.
# PHD2 [2] = biological target: T1, PHD2; test: Time course of PHD2-catalyzed peptide hydroxylation; conditions: 4 μM PHD2, 100 μM peptide, 50 μM Fe(II), 300 μM 2OG, 1 mM L-ascorbate, 50 mM HEPES pH 7.5, 37 °C, atmospheric O2; MALDI-TOF-MS; triplicate assays
# Experimental: (§1) Enzymatic assays were conducted as described ([46], [47]). Unless otherwise stated, the assay mixture typically contained 5 μM FIH, 500 μM substrate, 500 μM 2OG, 1 mM L-ascorbate, and 50 μM Fe(NH4)2(SO4)2 or 4 μM PHD2, 100 μM substrate, 300 μM 2OG, 4 mM L-ascorbate, and 50 μM Fe(NH4)2(SO4)2. For HIF-1α CODD19-mer, the background levels of methionine oxidation resulting from assay conditions were subtracted based on non-enzymatic controls ([48]).
# FIGURE 3. PHD2- and FIH-catalyzed hydroxylation of HIF-1/2α peptide substrates. A, time course of HIF-1/2α CODD19-mer peptide hydroxylation; B, time course of HIF-1/2α NODD19-mer peptide hydroxylation. Conditions were as follows: 4 μM PHD2, 100 μM peptide, 50 μM Fe(II), 300 μM 2OG, 1 mM L-ascorbate in HEPES 50 mM (pH 7.5) were incubated at 37 °C at atmospheric O2. C, time course of HIF-1α CAD 19- and 35-mer peptide hydroxylation. D, time course of HIF-2α CAD 19- and 35-mer peptide hydroxylation. Conditions were as follows: 5 μM FIH, 500 μM peptide, 50 μM Fe(II), 500 μM 2OG, 1 mM L-ascorbate in HEPES 50 mM (pH 7.5) were incubated at 37 °C at atmospheric O2. The different hydroxylation levels were analyzed by MALDI-TOF-MS. Error bars, S.D. of triplicate assays.
# PHD2 [3] = biological target: T1, PHD2; test: Rapid quench-flow, PHD2 pre-steady-state product and succinate formation; conditions: same mixture as stopped-flow, O2-saturated buffer 1:1, 5 °C, quenched with 1% CF3CO2H
# Experimental: Rapid quench-flow experiments were performed using the same conditions and preparation of the assay mixture as used in stopped-flow experiments. Rapid quench-flow equipment (TgK Scientific Ltd.) in an anaerobic glove box was used for the experiments. Samples were quenched with 1% CF3CO2H and analyzed using MALDI-TOF-MS (peptide hydroxylation) as described above or liquid chromatography-mass spectrometry (LC-MS, for succinate production). For LC-MS, chromatographic separation was performed at 50 °C using a Waters ACQUITY BEH Amide 1.7-μm, 2.1 × 100-mm column on a Waters ACQUITY^TM ultraperformance liquid chromatography system (Waters Corp., Milford, MA). The following eluents were used: mobile phase A: 10% H2O, 90% acetonitrile (v/v), 10 mM ammonium formate; mobile phase B: 50% H2O, 50% acetonitrile (v/v), 10 mM ammonium formate. The elution gradient was 0–7.0 min linear from 10 to 30% B, and 7.0–9.0 min at 10% B for re-equilibration of the column. A constant flow rate of 0.4 ml/min was used. Analytes were detected in negative ionization mode using single reaction monitoring on a Quattro triple quadrupole mass spectrometer (Waters) with a cone voltage of 15 V and a capillary voltage of 3.0 kV. The desolvation temperature was set to 250 °C, and the source temperature was set to 120 °C.
# To investigate correlation of the spectroscopic observations with rates of product accumulation, equivalent reactions were analyzed by rapid quench-flow methodology. Anerobically prepared PHD2·Fe(II)·2OG·peptide substrate complexes were mixed with O2-saturated buffer in a 1:1 ratio; reactions were quenched at defined time points with 1% aqueous CF3CO2H. The level of peptide hydroxylation was assessed by MALDI-TOF-MS ([42]), and succinate accumulation was analyzed by LC-MS. To obtain rate constants for product accumulation, the results were fitted with a single exponential function (Fig. 5E and Table 3).
# [4] = biological target: T2, PHD2 (catalytic domain, residues 181–426) (Homo sapiens, UniProt Q9GZT9); test: Steady-state kinetics of PHD2-catalyzed HIF-α CODD/NODD hydroxylation (MALDI-TOF-MS); conditions: PHD2, 4 μM PHD2, 50 μM Fe(II), 4 mM L-ascorbate, 50 mM HEPES pH 7.5, 37 °C
# T2 construct: The catalytic domain of PHD2 (residues 181–426) was purified as described; made in house
# Experimental: as §1
# The O2 dependence of FIH-catalyzed reactions was determined by conducting enzymatic assays in an “In vivo 500 Hypoxia Workstation” (Ruskinn) using buffers pre-equilibrated under different pO2 values for 24 h. The O2 dependence of PHD2-catalyzed reactions was determined by conducting enzymatic assays in sealed glass vials with variable N2/O2 contents ([42]). Reactions were stopped by spotting samples onto a matrix-assisted laser desorption/ionization-time of flight mass spectrometry (MALDI-TOF-MS) target plate and immediately mixing with α-cyano-4-hydroxycinnamic acid matrix. Hydroxylation levels were assessed by MALDI-TOF-MS as described ([46]).
# T1 sequence (Q9GZT9 181-426): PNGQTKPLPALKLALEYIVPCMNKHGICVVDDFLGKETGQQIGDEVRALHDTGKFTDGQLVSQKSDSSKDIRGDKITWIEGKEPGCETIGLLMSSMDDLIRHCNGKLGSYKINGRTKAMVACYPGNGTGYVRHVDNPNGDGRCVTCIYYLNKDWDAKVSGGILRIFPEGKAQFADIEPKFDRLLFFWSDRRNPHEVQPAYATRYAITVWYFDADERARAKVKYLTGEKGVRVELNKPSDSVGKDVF
# T2 sequence (Q9GZT9 181-426): as above
sequence,measurement,setting,value
"DLDLEMLAPYIPMDDDFQL [HIF-1α CODD, 19-mer fragment (556–574) of the HIF-1α C-terminal oxygen-dependent degradation domain, PHD2 substrate]","Stopped-flow, 520 nm (PHD2) krise phase",PHD2 [1],0.015 ± 0.005 s⁻¹
same,"Stopped-flow, 520 nm (PHD2) kfall phase",PHD2 [1]; traces average of triplicate,0.040 ± 0.007 s⁻¹
same,substrate hydroxylation after 15 min,PHD2 [2],70%
same,Rapid quench-flow kproduct,"PHD2 [3]; peptide hydroxylation by MALDI-TOF-MS, single exponential fit",0.0155 ± 0.0012 s⁻¹
same,Rapid quench-flow ksuccinate,PHD2 [3]; succinate by LC-MS,0.0130 ± 0.0020 s⁻¹
same,kcat^app,[4],0.060 ± 0.006 s⁻¹
